In patent publication US20040191811A1, “Methods for measuring levels of uridine-diphosphate-N-acetylglucosamine and activity of inhibitors thereof” (priority 2002, published 2004):
pIC50: −log10 of the molar value. Like-named read-outs stand apart in the source and are kept apart here.

Columns and labels:
GFAT-beta = molecular target: T1, GFAT-beta (Homo sapiens, UniProt O94808); assay: GFAT-beta inhibition, microtiter plate glucosamine 6-phosphate assay; assay type: biochemical
T1 construct: made in house; host or cells: SF9 insect cells (sonicated, centrifuged cell extract, not purified)
T1 sequence (O94808 whole entry): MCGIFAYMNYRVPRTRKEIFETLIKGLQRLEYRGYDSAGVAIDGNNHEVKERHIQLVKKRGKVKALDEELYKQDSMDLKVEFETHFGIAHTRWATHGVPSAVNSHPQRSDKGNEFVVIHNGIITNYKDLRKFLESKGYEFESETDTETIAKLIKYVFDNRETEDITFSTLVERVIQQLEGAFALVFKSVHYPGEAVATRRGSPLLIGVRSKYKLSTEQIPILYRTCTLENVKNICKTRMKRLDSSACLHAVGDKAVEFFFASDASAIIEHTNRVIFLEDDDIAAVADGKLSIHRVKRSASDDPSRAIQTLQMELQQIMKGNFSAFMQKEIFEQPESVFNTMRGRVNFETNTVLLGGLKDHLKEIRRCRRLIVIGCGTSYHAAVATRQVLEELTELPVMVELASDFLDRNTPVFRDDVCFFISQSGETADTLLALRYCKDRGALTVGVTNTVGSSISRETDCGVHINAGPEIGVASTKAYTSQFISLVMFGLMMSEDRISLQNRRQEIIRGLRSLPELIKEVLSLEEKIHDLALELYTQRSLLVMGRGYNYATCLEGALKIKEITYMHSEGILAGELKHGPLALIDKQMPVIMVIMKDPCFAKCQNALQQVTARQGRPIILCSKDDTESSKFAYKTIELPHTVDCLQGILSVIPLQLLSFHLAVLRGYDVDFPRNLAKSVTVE
Method: Stimulation of GFAT activity. […] For most testing, a 60-minute incubation at 37° C. is carried out in 96 well microtiter plates. To give the best heat transfer the plates are sealed with a Costar plate sealer and floated on a 37° C. water bath. Air bubbles are removed from the bottom of the plate to ensure proper heat transfer to all wells. […] A mixture of the incubation reagents is kept on ice and the enzyme is added to the mixture just before addition to the plate. Additional incubation mixture is kept on ice to add to standard and control samples. […] If test agents are to be used, 10 μl is added to the appropriate wells and the vehicle is added to the control wells before addition of the incubation mixture. 15 wells are left blank for addition of control and standard glucosamine 6-phosphate samples. After the incubation, 10 μl of the standards made up in the appropriate vehicle (DMSO) are added to the appropriate wells.

GFAT-alpha = molecular target: T2, GFAT-alpha (Homo sapiens, UniProt Q06210); assay: GFAT-alpha inhibition, microtiter plate glucosamine 6-phosphate assay; assay type: biochemical; conditions: enzyme expressed in SF9 insect cells; glutamine 10 mM, fructose 6-phosphate 10 mM; 60 minutes at 37° C.
T2 construct: made in house; host or cells: SF9 insect cells (sonicated, centrifuged cell extract, not purified)
T2 sequence (Q06210 1-681 isoform Q06210-2): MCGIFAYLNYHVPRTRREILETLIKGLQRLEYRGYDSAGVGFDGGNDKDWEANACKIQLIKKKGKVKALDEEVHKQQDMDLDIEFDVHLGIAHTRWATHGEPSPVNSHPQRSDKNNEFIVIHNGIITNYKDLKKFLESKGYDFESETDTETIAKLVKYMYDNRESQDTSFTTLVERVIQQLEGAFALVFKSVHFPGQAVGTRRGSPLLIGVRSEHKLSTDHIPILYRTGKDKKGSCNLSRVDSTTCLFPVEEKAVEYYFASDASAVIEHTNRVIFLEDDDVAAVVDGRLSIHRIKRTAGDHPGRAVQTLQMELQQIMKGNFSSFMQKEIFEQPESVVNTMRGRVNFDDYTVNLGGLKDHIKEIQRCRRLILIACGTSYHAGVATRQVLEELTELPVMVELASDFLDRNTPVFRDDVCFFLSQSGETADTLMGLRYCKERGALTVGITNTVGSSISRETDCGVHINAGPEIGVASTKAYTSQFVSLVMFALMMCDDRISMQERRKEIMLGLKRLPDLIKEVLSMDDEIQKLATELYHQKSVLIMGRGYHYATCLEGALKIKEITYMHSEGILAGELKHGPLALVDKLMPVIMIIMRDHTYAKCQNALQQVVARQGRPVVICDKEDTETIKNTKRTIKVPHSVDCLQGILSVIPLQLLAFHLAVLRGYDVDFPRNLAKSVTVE
Method: Enzyme preparation. GFAT-alpha (GenBank Accession No. M90516) and GFAT-beta (Accession No. AB016789) are cloned into pET12 and pEF-BOS C vectors (New England BioLabs) for transfection into SF9 and Hi5 insect cells, COS, type 293 cells, and E.coli. Endogenous activity for each cell line was also measured in non-transfected cells. The enzymes are expressed in each cell line by growing in large 24×24 cm plates and harvesting 20 hours after transfection. The media is removed and the plates are washed in 15 ml PBS. 1.5 ml of a lysis buffer (PBS 1×, KCl 50 mM, EDTA 10 mM, with protease inhibitors leupeptin 10 ug/ml, PMSF 20 ug/ml, A-protinin 30 ug/ml, and pepstatin 10 ug/ml) is added to each plate and the cells are removed using a large plastic cell scraper. […] The cell #/lysis volume is about 4×10^7cell/ml. The suspension is sonicated on ice (Branson sonicator setting 2.5 to 3) for 15 seconds using a microtip. The sonicated cell extracts are stored in microfuge tubes at −80° C. Before use, the extracts are centrifuged at 15000×g for 5 minutes at 4° C. Each enzyme preparation is titrated to determine the volume that gives between 20 to 30 umoles of glucosamine 6-phosphate in a reaction mixture in a 60-minute incubation at 37° C. (FIGS. 1A and 1B).
Stimulation of GFAT activity. […] For most testing, a 60-minute incubation at 37° C. is carried out in 96 well microtiter plates. To give the best heat transfer the plates are sealed with a Costar plate sealer and floated on a 37° C. water bath. Air bubbles are removed from the bottom of the plate to ensure proper heat transfer to all wells. The 100 μl reaction volume consists of glutamine 10 mM, fructose 6-phosphate 10 mM, PBS 1×, EDTA 5 mM, DTT 1 mM and the enzyme preparation. A mixture of the incubation reagents is kept on ice and the enzyme is added to the mixture just before addition to the plate. Additional incubation mixture is kept on ice to add to standard and control samples. […] If test agents are to be used, 10 μl is added to the appropriate wells and the vehicle is added to the control wells before addition of the incubation mixture. […] A concentration range of 2.5 to 30 umoles is in the linear portion of the curve and covers the quantity of glucosamine 6-phosphate produced under the incubation conditions (FIG. 4). The cold mixture is added to the standard sample wells and the glucosamine 6-phosphate is then measured.
Measurement of glucosamine 6-phosphate The reaction is started by adding the incubation mixture to the appropriate wells in a microtiter plate and placing the plate on a 37° C. water bath. […] The acetylated glucosamine is measured by the Morgan and Elson color reaction (Morgan. W. T. J. & Elson, L. A. (1934).Biochem. J. 28, 988). […]

[1] = enzyme expressed in SF9 insect cells, glutamine 10 mM, fructose 6-phosphate 10 mM, 60 minutes at 37° C., read-out: IC50 for inhibition of GFAT-beta

## [N-]=[N+]=CC(=O)CC[C@H](N)C(=O)O [DON, 6-diazo-5-oxo-L-norleucine]
GFAT-beta
  pIC50: 4.74
GFAT-alpha
  pIC50: 4.74

## COC(=O)/C=C/C(=O)NC[C@H](N)C(=O)O [FMDP, N3-(-4-methoxyflumaroyl)-L-2,3-diaminopropanoic acid]
GFAT-beta; [1]
  pIC50: 5.64
GFAT-alpha
  pIC50: 5.40

## N[C@@H](CNC(=O)CBr)C(=O)O [N3-(bromoacetyl)-L-2,3-diaminopropanoic acid]
GFAT-beta; [1]
  pIC50: 6.57
GFAT-alpha
  pIC50: 6.42

## uridine-diphosphate-N-acetylglucosamine [UDP-N-acetylglucosamine]
GFAT-beta; [1]
  pIC50: 4.00
GFAT-beta; ratio of IC50 GFAT-beta to IC50 GFAT-alpha
  times as much required to inhibit GFAT-beta compared with GFAT-alpha: more than 12 times
GFAT-alpha
  pIC50: 5.10
